# Source: patent US20160199463A1, “HDAC2 DEFENDS VASCULAR ENDOTHELIUM FROM INJURY” (The Johns Hopkins University, priority 2014, published 2016)
# “Also recorded” adds a separate entry of the source. Read-outs that look alike come from different tables or passages of the source. Numbered stars: 1 amine (or outer) side, 2 acyl side, 3 side chain; on linkers, the order of the positions; unused ones are H or OH. Bridge positions count the residues as written; N and C are the ends. Square brackets hold non-standard residues; d marks the D form. Peptide text beside a SMILES is read from it. I, II: the chains in the order shown. * marks the point of attachment. Actinocin(9to1) = Cc1c2oc3c(C)ccc(C(=O)[*:1])c3nc-2c(C(=O)[*:2])c(N)c1=O; NMeV = CN[C@H](C(=O)O)C(C)C; Cbz = O=C(OCc1ccccc1)*; Sar = CNCC(=O)O
# Legend:
# [1] = system: aortic rings of wild-type mice; test: Force tension (wire) myography, vascular relaxation of isolated wild-type mouse aortic rings; assay type: cell-based
# Protocol: Mouse aorta was isolated and cleaned in ice-cold Krebs-Ringer-bicarbonate solution containing the following (in mM): 118.3 NaCl, 4.7 KCl, 1.6 CaCl2, 1.2 KH2 PO4, 25 NaHCO3, 1.2 MgSO4, and 11.1 dextrose. The aorta was immersed in a bath filled with constantly oxygenated Krebs buffer at 37° C. Equal size thoracic aortic rings (2 mm) were mounted using a microscope, ensuring no damage to the smooth muscle or endothelium. One end of the aortic rings was connected to a transducer, and the other to a micromanipulator. Aorta was passively stretched to an optimal resting tension using the micromanipulator, after which a dose of 60 mM KCl was administered, and repeated after a wash with Krebs buffer. After these washes, all vessels were allowed to equilibrate for 20-30 min in the presence of indomethacin (3 μM). Phenylephrine (1 μM) was administered to induce vasoconstriction. A dosedependent response (1 nM to 10 μM), with the muscarinic agonist, ACH or nitric oxide donor, SNP, was then performed as necessary. The responses were repeated in the presence of inhibitors. Relaxation responses were calculated as a percentage of tension following pre-constriction. Sigmoidal dose-response curves were fitted to data with the minimum constrained to 0. Two to four rings were isolated from each animal and the number of animals in each group (n) was 6.
# [2] = system: calcium-insensitive eNOS in HEK 293 cells; test: NO radicals in medium of HEK 293 cells expressing calcium-insensitive eNOS (DCFH-DiOxyQ assay); assay type: cell-based, human; conditions: TSA together with ABH
# Protocol: (§1) Nitric Oxide levels in HAEC were determined using DAF-DA as per manufacture instructions (Life Sciences). Briefly, cells were loaded with DAF-DA (5 μM) for 20 min and washed 3 times with PBS and incubated for another 30 min in phenol-free media. Fluorescence was determined using a Nikon TE-200 epifluorescence microscope. Images were captured with a Rolera EMC2 camera (Q-Imaging, BC, Canada) with Velocity software (PerkinElmer, Lexington, Mass.). NO production in the cell culture media was also determined by measuring Nitrite levels using a Siever's NO analyzer. NO radicals were measured in cell media collected after 24 hours of treatment using the Oxiselect assay (Cell Biolabs, San Diego, Calif.).
# Next, the functional consequences of HDAC inhibition on downstream endothelial cell signaling were evaluated. Because eNOS-derived NO plays a central role in endothelial function, eNOS activity was assessed by measuring NO production using 3 different assays. […] HEK 293 cells lack native eNOS expression, but do produce abundant Arg2. Cell medium from 293 cells transfected with a control plasmid (LacZ) was used as a control background signal that was subtracted from all the groups containing calcium-insensitive endothelial nitric oxide synthase.
# NO production in HAECs = test: Nitric oxide production in HAECs (DAF-DA fluorescence, Siever's NO analyzer); assay type: cell-based, human; conditions: TSA 1 μmol/L with ABH (1 μmol/L)
# Protocol: as §1
# Arg2 = Arg2 protein expression in HAECs (Western blot); assay type: cell-based, human; conditions: for OxLDL-induced increase in abundance of endothelial arginase: preincubation 8 h, MLN4924 1 μM or MG132 10 μM, then OxLDL 50 μg/mL 24 h; for TSA (1 μmol/L) effect on Arg2 expression in pretreated cells: pretreatment with actinomycin D or cycloheximide (10 μg/mL)
# Protocol: (§2) After 48 hrs of HAEC cells transfection, cells were lysed in ice cold RIPA lysis buffer consisting of 20 mM Tris-HCl at pH 7.5, 150 mM NaCl, 1 mM EDTA, 1 mM EGTA, 1% NP40, 1% sodium deoxycholate, 1 mM Na3VO4, 2.5 mM sodium pyrophosphate, 1 mM 3-glycerophosphate, 1 μg/mL leupeptin, and a 1:1000 diluted protease inhibitor cocktail (Sigma). For immunoprecipitation studies, whole cell lysate lysates were centrifuged at 14,000×g and supernatants were precleared by incubation with Protein A/G-agarose beads for 2 h at 4° C. with rocking. Agarose beads were then pelleted by centrifugation at 1,000×g. FLAG-Arg2 in precleared lysates were immunoprecipitated by incubation overnight at 4° C. with rocking following addition of anti-FLAG antibody (10 μl). Immune complexes were eluted in 2×SDS sample buffer by boiling for 5 minutes before loading into SDS-PAGE. Western blotting analysis was performed by transferring the SDS gel onto a PVDF membrane and visualized using secondary antibodies conjugated to alkaline phosphatases.
# HDAC2 [3] = test: HDAC2 protein expression in HAECs (immunoblot); assay type: cell-based, human; conditions: for HDAC2 levels in OxLDL-exposed HAEC: pretreatment 8 h, MLN4924 1 μM or MG132 10 μM, then OxLDL 50 μg/mL 24 h
# Protocol: as §2
# [4] = system: arginase activity in HAECs; test: Arginase activity assay (urea production) in HAEC lysates; assay type: cell-based, human; conditions: for OxLDL-induced increase in activity of endothelial arginase: preincubation 8 h, MLN4924 1 μM or MG132 10 μM, then OxLDL 50 μg/mL 24 h
# Protocol: HAEC were lysed using RIPA buffer (50 mM of Tris.HCl, pH 7.5, 0.1 mM EDTA, 0.1% Triton X-100, and protease inhibitor), and centrifuged for 30 min at 14,000 g at 4° C. 50 μL (50-100 μg) of supernatant was added to 75 μl of 10 mM MnCl2 made in Tris-HCl (50 mM, pH 7.5) and heat activated by incubating at 55-60° C. for 10 min. 50 μL of L-Arginine that was prepared in 300 mM Tris-HCL, pH 9.7 were then added to the activated cell lysates to achieve final concentrations of 150 mM and incubated at 37° C. for 3 hrs with shaking. The reaction was stopped by adding 400 μL of an acid solution (H2SO4: H3PO4: H20=1:3:7). For colorimetric determination of urea, α-isonitrosopropiophenone (25 μL, 9% in ethanol) was added and further heated at 100° C. for 45 min. Samples were allowed to cool at room temperature in the dark for 10 min and urea concentration was determined by measuring absorbance at 550 nm using a spectrophotometer.
# NEDD8 = test: Protein NEDDylation in HAECs (immunoblot, immunoprecipitation); assay type: cell-based, human; conditions: HAEC expressing HA-tagged-NEDD8; MLN4924 0, 0.1, 0.3 or 1 μM, dose-dependent
# Protocol: FIG. 21A-FIG. 21H is a series of graphs and photographs of immunoblots showing inhibition of NEDDylation by MLN4924 improves OxLDL-mediated vascular endothelial dysfunction via downregulation of Arginase 2. Wire myography was used to measure vasorelaxation with acetylcholine (FIG. 21A, Ach) and sodium nitroprusside (FIG. 21B, SNP) in isolated mice aortas. Conditions included 24 h of OxLDL (50 μg/mL) or control medium preceded by 1 h with either vehicle (DMSO) or MLN4924 (1 μM). […] Note that native (and not transgene) HDAC2 protein levels are shown here. […] Note that “0 μgHA-NEDD8” denotes an empty vector (pcDNA3.1) control. *Indicates p b 0.05 vs control; **indicates p b 0.001; n=6 for vascular reactivity and arginase activity assays.
# Densitometry analysis of data from three experiments is shown in top panel. […] Note that “0 μg HA-NEDD8” denotes an empty vector (pcDNA3.1) control. […] Western blots in this figure are representative of 3 independent experiments.
# Arg2 mRNA = Arg2 mRNA in HAECs (RT-PCR, real-time PCR); assay type: cell-based, human
# Protocol: Total RNA was extracted from segments of mice aortas and HAEC using Trizol and PureLink (Invitrogen). RNA was then reverse transcribed with oligo dT primers to obtain cDNA and quantitative real time PCR (Applied Biosystems) was performed using SYBR Green Supermix mix (Applied Biosystems) whereas semiquantitative RTPCR was performed using conventional Biorad PCR machine and the following primer sets: Real Time PCR data are expressed as “fold change”, which is calculated as 2-ΔΔCt.
# SIRT = conditions: cited from earlier work
# eNOS = eNOS expression in HAECs (immunoblot); assay type: cell-based, human; conditions: 1 μmol/L, 18 hours
# Protocol: as §2
# HDAC = conditions: cited from earlier work
# HDAC2 [5] = conditions: low-dose; cited from earlier work
# [6] = MS275 2 μmol/L, CI994 1 μmol/L, MC1568 0.5 μmol/L, PC34051 100 nmol/L, MGCD0103 1 μmol/L
compound,measurement,setting,value
"NC(CCCCB(O)O)C(=O)O (stereo not drawn) [ABH, amino-2-borono-6-hexanoic acid]","Emax acetylcholine-mediated vasorelaxation, TSA-treated rings pretreated with ABH","[1]; TSA 200 nmol/L plus ABH (1 mmol/L), n=6",65.7±12.1%
same,TSA effect on NO production in the presence of ABH,[2],failed to attenuate
same,TSA-induced decrease of NO production on coincubation with ABH,NO production in HAECs,failed to occur
"CC(=O)Nc1ccc(C(=O)Nc2ccccc2N)cc1 [CI994, Tacedinaline]","endothelial Arg2 expression, class-specific HDAC inhibitors",Arg2; [6],no substantial effects
CC(C)C[C@@H](C=O)NC(=O)[C@H](CC(C)C)NC(=O)[C@H](CC(C)C)NC(=O)OCc1ccccc1 [MG132] (Cbz-Leu-Leu-Leu-aldehyde),decrease of HDAC2 levels by HA-NEDD8 expression,"HDAC2 [3]; MG132 10 μM, 8 h",abolished
same,HDAC2 levels in OxLDL-exposed HAEC,HDAC2 [3],rescued
same,OxLDL-induced increase in activity of endothelial arginase,[4],abolished
same,OxLDL-induced increase in abundance of endothelial arginase,Arg2,abolished
NS(=O)(=O)OC[C@@H]1C[C@@H](n2ccc3c(N[C@H]4CCc5ccccc54)ncnc32)C[C@@H]1O [MLN4924],HDAC2 protein expression in the absence of OxLDL,"HDAC2 [3]; MLN4924 0, 0.1, 0.3 or 1 μM",robust dose-dependent increase
same,HDAC2 levels in OxLDL-exposed HAEC,HDAC2 [3],rescued
same,"endothelium-independent responses to SNP, dose-dependent vasorelaxation","[1]; MGCD0103, MLN4924 or both, FIG. 29B",no significant differences
same,endothelial function (acetylcholine dose response) in OxLDL-exposed aortas,[1]; MLN4924 1 μM 1 h before OxLDL 50 μg/mL 24 h,Substantial rescue
same,Ach response in WT aorta,[1]; MLN4924 1.0 μM pretreatment,did not cause any significant changes
same,vascular endothelial dysfunction induced by MGCD0103,[1]; MLN4924 1.0 μM together with MGCD0103,did not reverse
same,"endothelial-dependent vascular relaxation, compound alone",[1]; MLN4924 1 μM without OxLDL,negligible effect
same,endothelial-independent vascular relaxation (sodium nitroprusside),"[1]; OxLDL 50 μg/mL 24 h, MLN4924 1 μM",unaffected
same,arginase activity in the absence of OxLDL,[4]; MLN4924 1 μM,decreased
same,OxLDL-induced increase in activity of endothelial arginase,[4],abolished
same,OxLDL-induced increase in abundance of endothelial arginase,Arg2,abolished
same,quantity of NEDDylation conjugates,NEDD8,attenuated
"Nc1ccccc1NC(=O)c1ccc(CNC(=O)OCc2cccnc2)cc1 [MS275, Entinostat]","endothelial Arg2 expression, class-specific HDAC inhibitors",Arg2; [6],no substantial effects
NC(=O)c1cccnc1 [Nicotinamide],"HAEC arginase activity, short-term","[4]; 30 minutes, nicotinamide 5 mmol/L, TSA 1 μmol/L",activating effect
same,Arg2 mRNA expression,"Arg2 mRNA; nicotinamide 0.1 or 0.2 mmol/L, 18 hours",No changes
same,Arg2 mRNA levels,Arg2 mRNA; nicotinamide (5 mmol/L) as printed,no effect
same,Arg2 protein levels,Arg2; nicotinamide 5 mmol/L,no effect
same,IC50,SIRT,< 50 µM
COc1ccc(Cn2ccc3ccc(C(=O)NO)cc32)cc1 [PCI-34051],"endothelial Arg2 expression, class-specific HDAC inhibitors",Arg2,no substantial effects; also recorded: slight increase
"O=C(CCCCCCC(=O)Nc1ccccc1)NO [SAHA, Suberoylanilide Hydroxamic Acid]",eNOS expression,eNOS,negligible effect
same,HDAC classes blocked,HDAC,10 nM; block Class I and Class II HDACs
O=C(CCCCCN1C(=O)c2cccc3cccc(c23)C1=O)NO [Scriptaid],eNOS expression,eNOS,negligible effect
same,"Arg2 expression, broad-spectrum HDAC inhibitors","Arg2; 1 μmol/L, 18 hours",upregulated
"Cc1c2oc3c(C)ccc(C(=O)N[C@@H]4C(=O)N[C@H](C(C)C)C(=O)N5CCC[C@H]5C(=O)N(C)CC(=O)N(C)[C@@H](C(C)C)C(=O)O[C@@H]4C)c3nc-2c(C(=O)N[C@@H]2C(=O)N[C@H](C(C)C)C(=O)N3CCC[C@H]3C(=O)N(C)CC(=O)N(C)[C@@H](C(C)C)C(=O)O[C@@H]2C)c(N)c1=O [actinomycin D] (I: T[dV]P[Sar][NMeV] / II: T[dV]P[Sar][NMeV]; ester I:1-I:C, II:1-II:C; linker I:N-II:N via Actinocin(9to1))",OxLDL-induced rise in Arg2 mRNA levels,Arg2 mRNA; with Actinomycin D,ablated
same,TSA (1 μmol/L) effect on Arg2 expression in pretreated cells,Arg2,failed to increase
C[C@@H]1C[C@@H]([C@H](O)CC2CC(=O)NC(=O)C2)C(=O)[C@@H](C)C1 [cycloheximide],TSA (1 μmol/L) effect on Arg2 expression in pretreated cells,Arg2,failed to increase
same,OxLDL-induced peak in Arg2 protein levels,Arg2; with cycloheximide,ablated
"Cn1c(=O)c2[nH]cnc2n(C)c1=O [theophylline, 1,3-dimethylxanthine]",HDAC2 activity and expression in alveolar macrophages,HDAC2 [5],increases
